Measurements: patent US5494790A, “α-3 sialyltransferase” (Kyowa Hakko Kogyo Co., Ltd., priority 1991, dated 1996)

Tests used:
[1] = test system: α2→3 Sialyltransferase encoded in the plasmid pAMoPRSAL-35F (fused protein with the IgG-binding region of Staphylococcus aureus protein A); test: Sialyltransferase activity on IgG Sepharose, HPLC of pyridylaminated sugar chain substrates (Table 1); format: biochemical, human; conditions: for α2→3 Sialyltransferase activity, pAMoPRSAL-35F, pmol: 0.1 mM substrate, 5 μl IgG Sepharose, 5 mM CMP-sialic acid, 37° C., 2 hours; for acceptance as substrate by the α2→3 sialyltransferase (in words): IgG Sepharose from Namalwa cells having pAMoPRSAL-35F; for α2→3 Sialyltransferase activity, pAMoPRSAL-35F, Relative activity: activity to the substrate LNnT taken as 100
[2] = target: T1, α2→3 sialyltransferase encoded in the plasmid pAMoPRSAW17-31F (fused protein with the IgG-binding region of Staphylococcus aureus protein A) (Homo sapiens, UniProt Q11206); test: Sialyltransferase activity on IgG Sepharose, HPLC of pyridylaminated sugar chain substrates (Table 2); format: biochemical; conditions: for α2→3 Sialyltransferase activity, pAMoPRSAW17-31F, pmol: 0.1 mM substrate, 5 μl IgG Sepharose, 5 mM CMP-sialic acid, 37° C., 2 hours; for acceptance as substrate by the α2→3 sialyltransferase (in words): IgG Sepharose from Namalwa cells having pAMoPRSAW17-31F; for α2→3 Sialyltransferase activity, pAMoPRSAW17-31F, Relative activity: activity to the substrate LNnT taken as 100
T1 construct: from 31st Phe to 329th Phe; made in house
T1 sequence (Q11206 35-333): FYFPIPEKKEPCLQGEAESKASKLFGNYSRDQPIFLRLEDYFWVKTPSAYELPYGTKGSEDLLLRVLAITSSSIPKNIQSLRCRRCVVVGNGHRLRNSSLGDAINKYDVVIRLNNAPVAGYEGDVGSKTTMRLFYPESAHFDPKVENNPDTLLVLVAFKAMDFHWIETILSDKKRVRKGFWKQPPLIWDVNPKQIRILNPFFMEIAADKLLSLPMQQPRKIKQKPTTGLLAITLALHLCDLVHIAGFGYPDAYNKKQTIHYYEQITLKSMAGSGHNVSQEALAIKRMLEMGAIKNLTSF

[3] = target: T2, known α2→3 sialyltransferase (Rattus norvegicus, UniProt Q02734); conditions: activity to the substrate LNT taken as 100; cited from earlier work
T2 sequence (Q02734 1-374): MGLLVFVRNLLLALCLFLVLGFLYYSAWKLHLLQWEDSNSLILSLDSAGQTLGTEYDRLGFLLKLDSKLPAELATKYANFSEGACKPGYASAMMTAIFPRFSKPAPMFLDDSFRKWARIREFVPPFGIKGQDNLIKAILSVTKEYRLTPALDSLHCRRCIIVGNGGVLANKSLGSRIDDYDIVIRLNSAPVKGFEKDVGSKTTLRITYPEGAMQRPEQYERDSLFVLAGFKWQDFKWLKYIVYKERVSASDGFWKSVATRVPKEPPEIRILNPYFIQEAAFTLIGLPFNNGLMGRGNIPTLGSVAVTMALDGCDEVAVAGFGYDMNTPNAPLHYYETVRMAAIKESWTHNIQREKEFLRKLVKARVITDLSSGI

Structure (SMILES) | α2→3 Sialyltransferase activity, pAMoPRSAL-35F, pmol [1] | acceptance as substrate by the α2→3 sialyltransferase (in words) [1] | α2→3 Sialyltransferase activity, pAMoPRSAL-35F, Relative activity [1] | α2→3 Sialyltransferase activity, pAMoPRSAW17-31F, pmol [2] | acceptance as substrate by the α2→3 sialyltransferase (in words) [2] | α2→3 Sialyltransferase activity, pAMoPRSAW17-31F, Relative activity [2] | Known α2→3 ST Relative activity (Table 1) [3] | Known α2→3 ST Relative activity (Table 2) [3]
CC(=O)N[C@H]1[C@H](O[C@H]2[C@@H](O)[C@@H](CO)O[C@@H](O[C@H]3[C@H](O)[C@@H](O)C(O)O[C@@H]3CO)[C@@H]2O)O[C@H](CO)[C@@H](O[C@@H]2O[C@H](CO)[C@H](O)[C@H](O)[C@H]2O)[C@@H]1O[C@@H]1O[C@@H](C)[C@@H](O)[C@@H](O)[C@@H]1O (some centres unmarked) [lacto-N-fucopentaose III] | 8.1 pmol | can take LNFP-III as the substrate | 16 | 9.4 pmol | can take LNFP-III as the substrate | 8 |  | 
CC(=O)N[C@H]1[C@H](O[C@H]2[C@@H](O)[C@@H](CO)O[C@@H](O[C@H]3[C@H](O[C@@H]4O[C@@H](C)[C@@H](O)[C@@H](O)[C@@H]4O)[C@@H](O)C(O)O[C@@H]3CO)[C@@H]2O)O[C@H](CO)[C@@H](O)[C@@H]1O[C@@H]1O[C@H](CO)[C@H](O)[C@H](O)[C@H]1O (some centres unmarked) [lacto-N-fucopentaose V] | 28.8 pmol |  | 56 | 36.3 pmol |  | 32 |  | 
CC(=O)N[C@H]1[C@H](O[C@H]2[C@@H](O)[C@@H](CO)O[C@@H](O[C@H]3[C@H](O)[C@@H](O)C(O)O[C@@H]3CO)[C@@H]2O)O[C@H](CO)[C@@H](O[C@@H]2O[C@H](CO)[C@H](O)[C@H](O)[C@H]2O)[C@@H]1O (some centres unmarked) [LNnT, Galβ1-4GlcNAcβ1-3Galβ1-4Glc] | 51.3 pmol | can take not only LNnT but also LNT as the substrate | 100 | 113.8 pmol | can take not only LNnT but also LNT as the substrate | 100 | 6 | 6
CC(=O)N[C@H]1[C@H](O[C@H]2[C@@H](O)[C@@H](CO)O[C@@H](O[C@H]3[C@H](O)[C@@H](O)C(O)O[C@@H]3CO)[C@@H]2O)O[C@H](CO)[C@@H](O)[C@@H]1O[C@@H]1O[C@H](CO)[C@H](O)[C@H](O)[C@H]1O (some centres unmarked) [LNT, Galβ1-3GlcNAcβ1-3Galβ1-4Glc] | 23.8 pmol | can take not only LNnT but also LNT as the substrate | 46 | 47.5 pmol | can take not only LNnT but also LNT as the substrate | 42 | 100 | 100
